# From patent US11685713B2, “Small molecule SHC blockers used for treating liver disease and metabolic disease” (Buto Corporation, priority 2019, dated 2023)
# Assays:
# [1] = test system: Methionine Choline-Deficient (MCD) Mouse model NASH; assay: Liver fibrosis markers in the MCD model of Non-alcoholic Steatohepatitis (NASH); assay type: in vivo; details: mice, MCD 8 weeks, 20 mg/kg orally the last 4 weeks, vs placebo
# Experimental: Mice were fed the Liver fibrosis-inducing Methionine Choline-Deficient (MCD) Mouse model NASH for 8 weeks, and the last 4 weeks they were dosed orally with 20 mg/kg of compound number 3 (RTX60933293), compound number 5 (RTX73145433), or placebo. After 8 weeks of MCD dosing, mice were sacrificed, and livers were extracted for nucleic acids and classical markers of liver fibrosis were assayed by QRTPCR.
# Without wishing to be bound by theory, NASH could be considered the next-most common metabolic disturbance after Type 2 Diabetes in the USA, and currently has no approved treatment. There is a usual progression from NAFLD (fatty liver) to the more fibrotic/cirrhotic NASH. While the precise mechanism of the transition of NAFLD to NASH is not completely understood, hepatocyte death and resulting fibrosis has been proposed. Fibrosis and fibrotic scarring are thought to be the most important pathophysiological endpoints to end-stage NASH, which typically necessitates an expensive and difficult liver transplant. As shown in other examples, Shc blockers through their sensitization to insulin, IGF-1 and other growth factors, are cytoprotective. Thus, by inhibiting hepatocyte death which promotes fibrosis, they should also be anti-fibrotic.
# [2] = test system: Methionine Choline-Deficient (MCD) Mouse model NASH; assay: as above; assay type: in vivo; details: mice, MCD 8 weeks, 20 mg/kg orally the last 4 weeks, vs placebo; remark: listed apart in the source
# [3] = test system: Corticosterone model of Insulin resistance; assay: Glucose Tolerance Test in the Corticosterone model of Insulin resistance; assay type: in vivo, mice; details: for glucose tolerizing effect in the Corticosteroid model: FIG. 3, summary in Example 1E; for GTT: glucose intolerance at time points after glucose administration / GTT Area Under the Curve (AUC): glucose intolerance relative to placebo: mice, corticosterone 21 days, 10 mg/kg i.p. for the final 5 days; for GTT: glucose intolerance at time points after glucose administration: FIG. 3 A/B; for GTT Area Under the Curve (AUC): glucose intolerance relative to placebo: FIG. 3 C
# Experimental: In a standard model of glucose intolerance and insulin insensitivity, corticosterone (CS) was dosed for 21 days, and in the drug treated group mice were administered Shc Blocker #3=RTX60933293 or #5=RTX73145433 at a dose of 10 mg/kg i.p. for the final 5 days of the 21-day CS treatment. […] By blocking the interaction of Shc protein with phosphotyrosines on the Insulin Receptor, a Shc blocker redirects more signaling to the insulin-sensitizing and glucose tolerizing phospho-Akt. Thus, peripheral cells become more sensitive per molecule insulin, and consequently more glucose tolerant. This prediction is borne out in the Corticosteroid model. Corticosterone is a known model of Type 2 Diabetes and Metabolic Syndrome, as Corticosterone induces peripheral insulin insensitivity.
Compound,"Collagen 1a1 (Col1), liver, QRTPCR [1]","Matrix Metalloproteinase 2 (MMP2), liver, QRTPCR [1]","Tissue metallopeptidase inhibitor 1 (TIMP1), liver, QRTPCR [1]","Transforming Growth Factor beta (TGF-b), liver, QRTPCR [1]","alpha-smooth muscle actin (aSMA), liver, QRTPCR [1]",liver fibrosis bio marker hydroxyproline [2],glucose tolerizing effect in the Corticosteroid model [3],GTT: glucose intolerance at time points after glucose administration [3],GTT Area Under the Curve (AUC): glucose intolerance relative to placebo [3]
O=C(NCCS(=O)(=O)Cc1ccccc1)N1CC=C(c2cccc3ccccc23)C1 [Compound 3],significantly reduced,significantly reduced,significantly reduced,significantly reduced,significantly reduced,significantly reduced,significantly glucose tolerizing,reduced glucose intolerance significantly at 4 time points,significantly reduced glucose intolerance
O=C(c1cccc(-n2cccc2)c1)N1CCOC(c2cccc(OC(F)F)c2)C1 (stereo not drawn) [Compound 5],significantly reduced,significantly reduced,significantly reduced,significantly reduced,significantly reduced,significantly reduced,significantly glucose tolerizing,reduced glucose significantly at 2 time points,significantly reduced glucose intolerance
